Data taken from publication PMC3421038 (The Pediatric infectious disease journal, 2012).
Read-outs that look alike come from different tables or passages of the source.

How the values were obtained:
[1] = human, in vivo; cited from earlier work
[2] = tested on: hepatic cytochrome P450 enzyme system; settings: cited from earlier work
[3] = human, in vivo, cited from earlier work
[4] = in vivo, cited from earlier work
[5] = in vivo
[6] = human, in vivo, iv, 6 mg/kg

CPK value after the dose of daptomycin [5]: 86 IU/L
CPK value before the dose of daptomycin [5]: 132 IU/L
calcium level after the daptomycin dose [5]: 9.7
calcium level before the daptomycin dose [5]: 9.3
AUC(0-t) [6]: 262 µg·h/mL
Cmax [6]: 25500 ng/mL
clearance [6]: 0.35 mL/min/kg
half-life [6]: 6.2 h
Compound: CCCCCCCCCC(=O)N[C@@H](Cc1c[nH]c2ccccc12)C(=O)N[C@H](CC(N)=O)C(=O)N[C@@H](CC(=O)O)C(=O)N[C@@H]1C(=O)NCC(=O)N[C@@H](CCCN)C(=O)N[C@@H](CC(=O)O)C(=O)N[C@H](C)C(=O)N[C@@H](CC(=O)O)C(=O)NCC(=O)N[C@H](CO)C(=O)N[C@@H]([C@H](C)CC(=O)O)C(=O)N[C@@H](CC(=O)c2ccccc2N)C(=O)O[C@@H]1C [daptomycin]
patients with cellulitis as serious adverse event [1]: 1.3%
patients with elevation of CPK concentrations [1]: 2.1%
renal toxicity [1]: does not cause renal toxicity
effect on the hepatic cytochrome P450 enzyme system [2]: does not have an effect
mean exposure (AUCinf) ([3]; 8 mg/kg): 429 µg·h/mL
mean exposure (AUCinf) ([3]; 10 mg/kg): 550 µg·h/mL
mean exposure (AUCinf) ([4]; 4 mg/kg): 417 µg·h/mL
administered dose excreted within 24 hours as intact drug [4]: 50%
kinetics (dose linearity) [4]: linear kinetics
respiratory rate, temperature, heart rate, or mean blood pressure during the daptomycin infusion ([5]; 6 mg/kg): No significant changes
adverse events classified as serious adverse events ([5]; iv, 6 mg/kg): Five
adverse events related to study drug ([5]; iv, 6 mg/kg): None
adverse events reported (number of events) ([5]; iv, 6 mg/kg): 34
subjects with adverse events ([5]; iv, 6 mg/kg): 55%
